Source: patent US9096596B2 (Janssen Pharmaceutica NV, priority 2013, dated 2015)

Tests used:
P2X7 = P2X7 (Homo sapiens (Human), UniProt Q99572); experiment: P2X7 antagonism in human PBMCs (IL-1β release, ELISA); format: cell-based; settings: test compound 10 μM, IL-1β release in human PBMCs, LPS 30 ng/ml + Bz-ATP 0.5 mM, read-out: PBMC 10 μM (% control)
Description: Human blood was collected using a blood donor program. […] Cells were incubated for an additional 1.5 hours. […] In Table 2, when the data cell has been left blank, it is intended to mean that the compound was not tested in that assay.

rat P2X7 = rat P2X7 (Rattus norvegicus (Rat), UniProt Q64663); experiment: Ca2+ flux (FLIPR) in 1321N1 cells expressing recombinant rat P2X7 channel; format: cell-based; settings: 250 μM BzATP, Calcium-4 dye
Chain of rat P2X7 (Q64663 whole entry): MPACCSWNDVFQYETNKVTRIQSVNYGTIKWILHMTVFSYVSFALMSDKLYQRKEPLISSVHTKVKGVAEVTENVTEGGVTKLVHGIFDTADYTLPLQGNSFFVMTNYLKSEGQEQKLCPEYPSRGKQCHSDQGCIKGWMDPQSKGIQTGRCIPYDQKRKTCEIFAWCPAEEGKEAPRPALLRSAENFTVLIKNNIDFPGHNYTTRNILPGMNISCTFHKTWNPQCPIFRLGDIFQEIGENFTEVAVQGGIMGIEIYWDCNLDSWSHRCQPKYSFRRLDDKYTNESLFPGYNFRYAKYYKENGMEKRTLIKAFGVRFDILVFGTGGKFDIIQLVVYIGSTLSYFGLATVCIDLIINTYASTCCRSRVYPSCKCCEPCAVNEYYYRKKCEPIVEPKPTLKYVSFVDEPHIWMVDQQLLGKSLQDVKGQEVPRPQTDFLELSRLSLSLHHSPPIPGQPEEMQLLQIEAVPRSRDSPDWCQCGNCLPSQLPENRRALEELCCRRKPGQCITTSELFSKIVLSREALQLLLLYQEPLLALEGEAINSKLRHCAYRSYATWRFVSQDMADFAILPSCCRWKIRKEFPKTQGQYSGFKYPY
Description: 1321N1 cells expressing the recombinant human, rat or mouse P2X7 channel was cultured in HyQ DME/(HyClone/Dulbecco's Modified Eagle Medium) high glucose supplemented with 10% Fetal Bovine Serum (FBS) and appropriate selection marker. Cells were seeded at a density of 25000 cells/well (96-well clear bottom black walled plates) in 100 μl volume/well. On the day of the experiment, cell plates were washed with assay buffer, containing (in mM): 130 NaCl, 2 KCl, 1 CaCl2, 1 MgCl2, 10 HEPES, 5 glucose; pH 7.40 and 300 mOs. After the wash, cells were loaded with the Calcium-4 dye (Molecular Device) and incubated in the dark for 60 minutes. Test compounds were prepared at 250× the test concentration in neat DMSO. Intermediate 96-well compound plates were prepared by transferring 1.2 μL of the compound into 300 μL of assay buffer. A further 3× dilution occurred when transferring 50 μL/well of the compound plate to 100 μL/well in the cell plate. Cells were incubated with test compounds and dye for 30 minutes. […] The fluorescence change was measured 180 seconds after adding the agonist.

Chain of P2X7 (Q99572 whole entry): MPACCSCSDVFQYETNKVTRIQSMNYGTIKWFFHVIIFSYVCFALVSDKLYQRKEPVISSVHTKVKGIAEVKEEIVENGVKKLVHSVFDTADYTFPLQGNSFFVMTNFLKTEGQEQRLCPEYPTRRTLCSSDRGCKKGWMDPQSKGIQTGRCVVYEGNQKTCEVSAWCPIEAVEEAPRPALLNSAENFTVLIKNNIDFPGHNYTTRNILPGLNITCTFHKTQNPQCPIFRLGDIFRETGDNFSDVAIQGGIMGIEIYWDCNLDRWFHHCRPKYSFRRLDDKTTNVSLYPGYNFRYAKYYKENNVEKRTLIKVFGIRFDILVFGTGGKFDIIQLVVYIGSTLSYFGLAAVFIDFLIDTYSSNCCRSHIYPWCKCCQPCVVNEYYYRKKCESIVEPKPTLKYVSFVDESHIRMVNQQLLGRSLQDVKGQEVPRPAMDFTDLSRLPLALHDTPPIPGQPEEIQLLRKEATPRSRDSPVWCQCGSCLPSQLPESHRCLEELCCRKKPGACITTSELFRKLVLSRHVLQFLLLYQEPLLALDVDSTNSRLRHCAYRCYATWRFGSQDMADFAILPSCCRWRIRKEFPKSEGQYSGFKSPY

SMILES	remaining activity at 10 µM (P2X7)	IC50 (rat P2X7)
Cc1nc2c(c(-c3[nH]ncc3C(F)(F)F)n1)CCN(C(=O)c1cccc(Cl)c1Cl)C2 [Example 40, 7-[(2,3-Dichlorophenyl)carbonyl]-2-methyl-4-[4-(trifluoromethyl)-1H-pyrazol-5-yl]-5,6,7,8-tetrahydropyrido[3,4-d]pyrimidine]	12.9%	–
CC1c2ncnc(-c3ccn[nH]3)c2CCN1C(=O)c1ccc(F)c(C(F)(F)F)c1Cl (centres unmarked) [Example 115, (2-chloro-4-fluoro-3-(trifluoromethyl)phenyl)(8-methyl-4-(1H-pyrazol-5-yl)-5,6-dihydropyrido[3,4-d]pyrimidin-7(8H)-yl)methanone]	-3.1%	–
C[C@H]1c2ncnc(-c3ccn[nH]3)c2CCN1C(=O)c1ccc(F)c(Cl)c1Cl (single isomer, unassigned) [Example 120, (S*)-(2,3-dichloro-4-fluorophenyl)(8-methyl-4-(1H-pyrazol-5-yl)-5,6-dihydropyrido[3,4-d]pyrimidin-7(8H)-yl)methanone]	–	1510 nM
Cc1nc2c(c(-n3nccn3)n1)CCN(C(=O)c1cccc(C(F)(F)F)c1Cl)C2 [Example 47, 7-{[2-Chloro-3-(trifluoromethyl)phenyl]carbonyl}-2-methyl-4-(2H-1,2,3-triazol-2-yl)-5,6,7,8-tetrahydropyrido[3,4-d]pyrimidine]	–	7.9 nM
Cc1nc2c(c(-c3cnoc3)n1)CCN(C(=O)c1cccc(C(F)(F)F)c1Cl)C2 [Example 49, 7-{[2-Chloro-3-(trifluoromethyl)phenyl]carbonyl}-4-isoxazol-4-yl-2-methyl-5,6,7,8-tetrahydropyrido[3,4-d]pyrimidine]	16.3%	–
O=C(c1cccc(C(F)(F)F)c1Cl)N1CCc2c(ncnc2-c2ccnn2C2CCCCO2)C1 (centres unmarked) [Example 17, 7-{[2-Chloro-3-(trifluoromethyl)phenyl]carbonyl}-4-[1-(tetrahydro-2H-pyran-2-yl)-1H-pyrazol-5-yl]-5,6,7,8-tetrahydropyrido[3,4-d]pyrimidine]	9.9%	–
Cc1nc2c(c(-c3ccn(CCF)n3)n1)C[C@H](C)N(C(=O)c1cccc(C(F)(F)F)c1Cl)C2 (single isomer, unassigned) [Example 125, (S*)-(2-chloro-3-(trifluoromethyl)phenyl)(4-(1-(2-fluoroethyl)-1H-pyrazol-3-yl)-2,6-dimethyl-5,6-dihydropyrido[3,4-d]pyrimidin-7(8H)-yl)methanone]	64.7%	–
C[C@H]1c2ncnc(-c3ccn[nH]3)c2CCN1C(=O)c1cccc(C(F)(F)F)c1Cl (single isomer, unassigned) [Example 114, (S*)-(2-chloro-3-(trifluoromethyl)phenyl)(8-methyl-4-(1H-pyrazol-5-yl)-5,6-dihydropyrido[3,4-d]pyrimidin-7(8H)-yl)methanone]	–	166 nM
Cc1nc2c(c(-c3ccc[nH]3)n1)CCN(C(=O)c1cccc(C(F)(F)F)c1Cl)C2 [Example 45, 7-{[2-Chloro-3-(trifluoromethyl)phenyl]carbonyl}-2-methyl-4-(1H-pyrrol-2-yl)-5,6,7,8-tetrahydropyrido[3,4-d]pyrimidine]	7.1%	–
Cc1nc2c(c(-c3ccccn3)n1)CCN(C(=O)c1cccc(C(F)(F)F)c1Cl)C2 [Example 30, 7-{[2-Chloro-3-(trifluoromethyl)phenyl]carbonyl}-2-methyl-4-pyridin-2-yl-5,6,7,8-tetrahydropyrido[3,4-d]pyrimidine]	21%	–
Cc1nc2c(c(-c3ccn[nH]3)n1)C[C@@H](C)N(C(=O)c1cccc(Cl)c1Cl)C2 (single isomer, unassigned) [Example 68, (R*)-(2,3-dichlorophenyl)(2,6-dimethyl-4-(1H-pyrazol-5-yl)-5,6-dihydropyrido[3,4-d]pyrimidin-7(8H)-yl)methanone]	–	8.8 nM
Cc1cccc(C(=O)N2CCc3c(ncnc3-c3ccn[nH]3)C2)c1Cl [Example 8, 7-[(2-Chloro-3-methylphenyl)carbonyl]-4-(1H-pyrazol-5-yl)-5,6,7,8-tetrahydropyrido[3,4-d]pyrimidine]	–	> 10000 nM

The remaining lines, values ahead:

remaining activity at 10 µM (P2X7)	IC50 (rat P2X7)	SMILES
0.7%	–	CC1c2ncnc(-c3ccn[nH]3)c2CCN1C(=O)c1ccc(Cl)c(F)c1Cl (centres unmarked) [Example 121]
17.3%	–	Cc1nc2c(c(-c3ccn[nH]3)n1)CCN(C(=O)c1cccc(C(F)(F)F)c1F)C2 [Example 51, 7-{[2-Fluoro-3-(trifluoromethyl)phenyl]carbonyl}-2-methyl-4-(1H-pyrazol-5-yl)-5,6,7,8-tetrahydropyrido[3,4-d]pyrimidine]
9.2%	–	Cc1nc2c(c(-c3ccccn3)n1)CCN(C(=O)c1cccc(Cl)c1Cl)C2 [Example 31, 7-[(2,3-Dichlorophenyl)carbonyl]-2-methyl-4-pyridin-2-yl-5,6,7,8-tetrahydropyrido[3,4-d]pyrimidine]
92.2%	–	Cc1nc2c(c(-c3ccn[nH]3)n1)CC(C)N(C(=O)c1cc(Cl)ccc1Cl)C2 (centres unmarked) [Example 86, (2,5-dichlorophenyl)(2,6-dimethyl-4-(1H-pyrazol-5-yl)-5,6-dihydropyrido[3,4-d]pyrimidin-7(8H)-yl)methanone]
–	5960 nM	Cc1nc2c(c(-c3ccn[nH]3)n1)C[C@H](C)N(C(=O)c1ccc(F)cc1Cl)C2 (single isomer, unassigned) [Example 92, (S*)-(2-chloro-4-fluorophenyl)(2,6-dimethyl-4-(1H-pyrazol-5-yl)-5,6-dihydropyrido[3,4-d]pyrimidin-7(8H)-yl)methanone]
16.1%	–	CN(C)c1nc2c(c(-c3ccccc3)n1)CCN(C(=O)c1cccc(C(F)(F)F)c1Cl)C2 [Example 26, 7-{[2-Chloro-3-(trifluoromethyl)phenyl]carbonyl}-N,N-dimethyl-4-phenyl-5,6,7,8-tetrahydropyrido[3,4-d]pyrimidin-2-amine]
2.7%	–	Cc1nc2c(c(-c3ccn[nH]3)n1)CC(C)N(C(=O)c1ccc(Cl)cc1Cl)C2 (centres unmarked) [Example 83, (2,4-dichlorophenyl)(2,6-dimethyl-4-(1H-pyrazol-5-yl)-5,6-dihydropyrido[3,4-d]pyrimidin-7(8H)-yl)methanone]
–	132 nM	Cc1nc2c(c(-c3ccn[nH]3)n1)C[C@@H](C)N(C(=O)c1ccc(F)cc1Cl)C2 (single isomer, unassigned) [Example 91, (R*)-(2-chloro-4-fluorophenyl)(2,6-dimethyl-4-(1H-pyrazol-5-yl)-5,6-dihydropyrido[3,4-d]pyrimidin-7(8H)-yl)methanone]
10.8%	–	CN(C)c1nc2c(c(-c3ccccc3)n1)CCN(C(=O)c1cccc(Cl)c1Cl)C2 [Example 25, 7-[(2,3-Dichlorophenyl)carbonyl]-N,N-dimethyl-4-phenyl-5,6,7,8-tetrahydropyrido[3,4-d]pyrimidin-2-amine]
22.5%	–	Cc1nc2c(c(-c3ccn[nH]3)n1)CC(C)N(C(=O)c1cccc(C(F)(F)F)c1F)C2 (centres unmarked) [Example 74, (2,6-dimethyl-4-(1H-pyrazol-5-yl)-5,6-dihydropyrido[3,4-d]pyrimidin-7(8H)-yl)(2-fluoro-3-(trifluoromethyl)phenyl)methanone]
83.5%	–	Cc1noc(C)c1-c1ncnc2c1CCN(C(=O)c1cccc(C(F)(F)F)c1Cl)C2 [Example 50, 7-{[2-Chloro-3-(trifluoromethyl)phenyl]carbonyl}-4-(3,5-dimethylisoxazol-4-yl)-5,6,7,8-tetrahydropyrido[3,4-d]pyrimidine]
-2.7%	–	Cc1nc2c(c(-c3ccn[nH]3)n1)CC(C)N(C(=O)c1ccc(Cl)c(F)c1Cl)C2 (centres unmarked) [Example 70, (2,4-dichloro-3-fluorophenyl)(2,6-dimethyl-4-(1H-pyrazol-5-yl)-5,6-dihydropyrido[3,4-d]pyrimidin-7(8H)-yl)methanone]
13.4%	–	Cc1cccc(C(=O)N2CCc3c(ncnc3-c3ccccn3)C2)c1Cl [Example 13, 7-[(2-Chloro-3-methylphenyl)carbonyl]-4-pyridin-2-yl-5,6,7,8-tetrahydropyrido[3,4-d]pyrimidine]
49.5%	–	Cc1cccc(C(=O)N2CCc3c(ncnc3-c3cnn(C)c3)C2)c1Cl [Example 6, 7-[(2-Chloro-3-methylphenyl)carbonyl]-4-(1-methyl-1H-pyrazol-4-yl)-5,6,7,8-tetrahydropyrido[3,4-d]pyrimidine]
–	9.1 nM	C[C@@H]1c2ncnc(-c3ccn[nH]3)c2CCN1C(=O)c1cccc(C(F)(F)F)c1Cl (single isomer, unassigned) [Example 113, (R*)-(2-chloro-3-(trifluoromethyl)phenyl)(8-methyl-4-(1H-pyrazol-5-yl)-5,6-dihydropyrido[3,4-d]pyrimidin-7(8H)-yl)methanone]
–	28.4 nM	C[C@@H]1c2ncnc(-c3ccn[nH]3)c2CCN1C(=O)c1ccc(F)c(Cl)c1Cl (single isomer, unassigned) [Example 119, (R*)-(2,3-dichloro-4-fluorophenyl)(8-methyl-4-(1H-pyrazol-5-yl)-5,6-dihydropyrido[3,4-d]pyrimidin-7(8H)-yl)methanone]
–	938 nM	Cc1nc2c(c(-c3ccn[nH]3)n1)C[C@H](C)N(C(=O)c1cccc(Cl)c1Cl)C2 (single isomer, unassigned) [Example 69, (S*)-(2,3-dichlorophenyl)(2,6-dimethyl-4-(1H-pyrazol-5-yl)-5,6-dihydropyrido[3,4-d]pyrimidin-7(8H)-yl)methanone]
